Laboratory results as given in the NIST ThermoML archive (doi:10.1016/j.jct.2013.12.025).
Numbers after ± are expanded uncertainties.

Assay: refractive index (Na D-line) (dimensionless); xn = mol fraction of the nth substance listed
Conditions: 101 kPa, Liquid, Standard Abbe refractometry

C=C[Si](C)(C)O[Si](C)(C)C=C [1,3-diethenyl-1,1,3,3-tetramethyldisiloxane] + Clc1ccccc1
refractive index
Conditions | 283.15 K | 288.15 K | 293.15 K | 298.15 K | 303.15 K
x1 = 0.05 | 1.51909 ± 0.00032 | 1.51642 ± 0.00032 | 1.51366 ± 0.00032 | 1.51088 ± 0.00032 | 1.50802 ± 0.00032
x1 = 0.0998 | 1.50933 ± 0.00032 | 1.5066 ± 0.00032 | 1.50385 ± 0.00032 | 1.50103 ± 0.00032 | 1.49821 ± 0.00032
x1 = 0.15 | 1.50029 ± 0.00032 | 1.49759 ± 0.00032 | 1.49487 ± 0.00032 | 1.492 ± 0.00032 | 1.48923 ± 0.00032
x1 = 0.1996 | 1.49216 ± 0.00032 | 1.48946 ± 0.00032 | 1.48671 ± 0.00032 | 1.48389 ± 0.00032 | 1.48103 ± 0.00032
x1 = 0.25 | 1.4846 ± 0.00032 | 1.48187 ± 0.00032 | 1.47913 ± 0.00032 | 1.47637 ± 0.00032 | 1.47349 ± 0.00032
x1 = 0.2999 | 1.47766 ± 0.00032 | 1.47495 ± 0.00032 | 1.47223 ± 0.00032 | 1.46943 ± 0.00032 | 1.46663 ± 0.00032
x1 = 0.35 | 1.47122 ± 0.00032 | 1.46854 ± 0.00032 | 1.46582 ± 0.00032 | 1.46303 ± 0.00032 | 1.46019 ± 0.00032
x1 = 0.3999 | 1.46527 ± 0.00032 | 1.46262 ± 0.00032 | 1.4599 ± 0.00032 | 1.45712 ± 0.00032 | 1.45432 ± 0.00032
x1 = 0.4496 | 1.45981 ± 0.00032 | 1.45712 ± 0.00032 | 1.45441 ± 0.00032 | 1.45167 ± 0.00032 | 1.44883 ± 0.00032
x1 = 0.4999 | 1.45464 ± 0.00032 | 1.45197 ± 0.00032 | 1.44926 ± 0.00032 | 1.4465 ± 0.00032 | 1.4437 ± 0.00032
x1 = 0.5499 | 1.44985 ± 0.00032 | 1.44716 ± 0.00032 | 1.44446 ± 0.00032 | 1.4417 ± 0.00032 | 1.43891 ± 0.00032
x1 = 0.6 | 1.44533 ± 0.00032 | 1.44268 ± 0.00032 | 1.43999 ± 0.00032 | 1.43722 ± 0.00032 | 1.43446 ± 0.00032
x1 = 0.6469 | 1.44138 ± 0.00032 | 1.4387 ± 0.00032 | 1.43603 ± 0.00032 | 1.43329 ± 0.00032 | 1.43053 ± 0.00032
x1 = 0.6998 | 1.43721 ± 0.00032 | 1.43455 ± 0.00032 | 1.43185 ± 0.00032 | 1.42911 ± 0.00032 | 1.42638 ± 0.00032
x1 = 0.7499 | 1.43345 ± 0.00032 | 1.4308 ± 0.00032 | 1.42812 ± 0.00032 | 1.42542 ± 0.00032 | 1.4227 ± 0.00032
x1 = 0.7997 | 1.42994 ± 0.00032 | 1.42729 ± 0.00032 | 1.42463 ± 0.00032 | 1.42193 ± 0.00032 | 1.41923 ± 0.00032
x1 = 0.8499 | 1.42661 ± 0.00032 | 1.42395 ± 0.00032 | 1.42129 ± 0.00032 | 1.41862 ± 0.00032 | 1.41593 ± 0.00032
x1 = 0.8996 | 1.4235 ± 0.00032 | 1.42083 ± 0.00032 | 1.41817 ± 0.00032 | 1.4155 ± 0.00032 | 1.41283 ± 0.00032
x1 = 0.9497 | 1.4205 ± 0.00032 | 1.41785 ± 0.00032 | 1.4152 ± 0.00032 | 1.41257 ± 0.00032 | 1.40991 ± 0.00032
x1 = 1 | 1.41767 ± 0.00032 | 1.415 ± 0.00032 | 1.41237 ± 0.00032 | 1.40973 ± 0.00032 | 1.40708 ± 0.00032

C=C[Si](C)(C)O[Si](C)(C)C=C [1,3-diethenyl-1,1,3,3-tetramethyldisiloxane] + Fc1ccccc1
refractive index
Conditions | 283.15 K | 288.15 K | 293.15 K | 298.15 K | 303.15 K
x1 = 0.05 | 1.46591 ± 0.00032 | 1.46302 ± 0.00032 | 1.4601 ± 0.00032 | 1.45724 ± 0.00032 | 1.45427 ± 0.00032
x1 = 0.1 | 1.46088 ± 0.00032 | 1.45799 ± 0.00032 | 1.4551 ± 0.00032 | 1.45222 ± 0.00032 | 1.44927 ± 0.00032
x1 = 0.15 | 1.45637 ± 0.00032 | 1.45349 ± 0.00032 | 1.45063 ± 0.00032 | 1.44775 ± 0.00032 | 1.44482 ± 0.00032
x1 = 0.1993 | 1.45237 ± 0.00032 | 1.44949 ± 0.00032 | 1.44664 ± 0.00032 | 1.44378 ± 0.00032 | 1.44083 ± 0.00032
x1 = 0.25 | 1.44858 ± 0.00032 | 1.44572 ± 0.00032 | 1.44288 ± 0.00032 | 1.44002 ± 0.00032 | 1.43708 ± 0.00032
x1 = 0.2999 | 1.44521 ± 0.00032 | 1.44238 ± 0.00032 | 1.43954 ± 0.00032 | 1.43671 ± 0.00032 | 1.43382 ± 0.00032
x1 = 0.35 | 1.44212 ± 0.00032 | 1.43928 ± 0.00032 | 1.43649 ± 0.00032 | 1.43366 ± 0.00032 | 1.43075 ± 0.00032
x1 = 0.4 | 1.43929 ± 0.00032 | 1.43648 ± 0.00032 | 1.43368 ± 0.00032 | 1.43086 ± 0.00032 | 1.42798 ± 0.00032
x1 = 0.45 | 1.43671 ± 0.00032 | 1.4339 ± 0.00032 | 1.43109 ± 0.00032 | 1.42829 ± 0.00032 | 1.42546 ± 0.00032
x1 = 0.5 | 1.43427 ± 0.00032 | 1.43147 ± 0.00032 | 1.42871 ± 0.00032 | 1.42592 ± 0.00032 | 1.42309 ± 0.00032
x1 = 0.5501 | 1.43205 ± 0.00032 | 1.42925 ± 0.00032 | 1.42651 ± 0.00032 | 1.42374 ± 0.00032 | 1.42092 ± 0.00032
x1 = 0.6 | 1.42996 ± 0.00032 | 1.42721 ± 0.00032 | 1.42446 ± 0.00032 | 1.42171 ± 0.00032 | 1.41891 ± 0.00032
x1 = 0.6501 | 1.42804 ± 0.00032 | 1.4253 ± 0.00032 | 1.42257 ± 0.00032 | 1.41982 ± 0.00032 | 1.41705 ± 0.00032
x1 = 0.7 | 1.42627 ± 0.00032 | 1.42353 ± 0.00032 | 1.4208 ± 0.00032 | 1.41808 ± 0.00032 | 1.41532 ± 0.00032
x1 = 0.7501 | 1.42458 ± 0.00032 | 1.42185 ± 0.00032 | 1.41913 ± 0.00032 | 1.41642 ± 0.00032 | 1.41369 ± 0.00032
x1 = 0.8 | 1.42302 ± 0.00032 | 1.42031 ± 0.00032 | 1.41762 ± 0.00032 | 1.41493 ± 0.00032 | 1.41219 ± 0.00032
x1 = 0.85 | 1.42152 ± 0.00032 | 1.41883 ± 0.00032 | 1.41615 ± 0.00032 | 1.41349 ± 0.00032 | 1.4108 ± 0.00032
x1 = 0.8998 | 1.42015 ± 0.00032 | 1.41747 ± 0.00032 | 1.4148 ± 0.00032 | 1.41213 ± 0.00032 | 1.40945 ± 0.00032
x1 = 0.95 | 1.41882 ± 0.00032 | 1.41617 ± 0.00032 | 1.41352 ± 0.00032 | 1.41087 ± 0.00032 | 1.40819 ± 0.00032
x1 = 1 | 1.41758 ± 0.00032 | 1.41493 ± 0.00032 | 1.41227 ± 0.00032 | 1.40963 ± 0.00032 | 1.40695 ± 0.00032
